Results published in US6455074B1, “Methods for fabricating polymer-based controlled release devices” (Alkermes Controlled Therapeutics, Inc., priority 1997, dated 2002).

System: estrous cycle of the rat
Test: Rat Estrous Cyclicity Model
Assay type: in vivo
Description: The Rat Estrous Cyclicity Model is described in detail in Hahn et al., Biological Assays Utilized to Characterize LHRH and its Analogs. In: LHRH and its Analogs, Contraception and Therapeutic Applications (Eds. Vickery B H, Nestor J J, and Hafez ESE), pp. 49-60. MTP Press Ltd, Lancaster, England, 1984, the contents of which are incorporated herein by reference. The model is used to assess the pharnacodynamic effect which an effective serum level of azaline B (at least 2.0 ng/ml), provided by the administration of a sustained release device of the invention, has on the estrous cycle of the rat. When the minimum effective concentration of azaline B is present in serum, the estrus phase of the estrous cycle of the rat is suppressed and the rat remains in the diestrus phase of the estrous cycle.
Microparticles containing an effective amount of azaline B were prepared according to the “Particulate Method,” described above, and the methods of Examples 1 and 3. The presence of azaline B activity was measured as the percent of a test group which remained in the diestrus phase of the estrous cycle. Animals were subcutaneously injected with equal amounts of azaline B either encapsulated in a microparticle or unencapsulated. […] The results are depicted in FIGS. 1 and 2 which show a plot of the percent of animals per treatment group in diestrus for each formulation evaluated versus time.

## Ac-D-Nal′-D-Cpa^2-D-Pal^3-Ser^4-Aph^5(atz)-D-Aph^6(atz)-Leu^7-Ilys^8-Pro^9-D-Ala^10 [azaline B]
  effective serum level of azaline B (minimum effective concentration suppressing estrus phase): at least 2.0 ng/ml
